# From patent US20100130581A1, “COMPOUNDS AND METHODS FOR THE TREATMENT OF PAIN” (THE UNIVERSITY OF QUEENSLAND, priority 2006, published 2010)
# pIC50, pKi: −log10 of the molar value. Where a SMILES comes first, the peptide text is derived from it. [ ]: non-standard residue; d: D form. ξ: configuration not given here. ξAoc(2) = CCCCCCC(N)C(=O)O
# Legend:
# μ-opioid receptor = target: T1, μ-opioid receptor (Homo sapiens, UniProt P35372); assay: Whole cell-based binding assay, displacement of 3H-DAMGO
# T1 construct: SH-SY5Y cells endogenously expressing μ- and δ-opioid receptors; endogenous in cells; host or cells: SH-SY5Y cells
# T1 sequence (P35372 whole entry): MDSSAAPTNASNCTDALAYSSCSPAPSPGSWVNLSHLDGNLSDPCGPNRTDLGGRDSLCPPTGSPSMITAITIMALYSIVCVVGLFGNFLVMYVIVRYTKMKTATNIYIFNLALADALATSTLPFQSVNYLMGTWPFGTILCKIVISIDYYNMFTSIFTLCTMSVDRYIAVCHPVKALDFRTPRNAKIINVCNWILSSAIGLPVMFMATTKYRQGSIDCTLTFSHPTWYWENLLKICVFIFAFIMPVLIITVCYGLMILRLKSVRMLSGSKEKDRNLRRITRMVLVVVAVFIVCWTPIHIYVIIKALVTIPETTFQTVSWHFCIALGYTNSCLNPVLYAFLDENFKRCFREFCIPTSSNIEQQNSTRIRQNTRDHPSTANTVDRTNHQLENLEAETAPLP
# Protocol: Media was removed and cells were washed with PBS before pre-incubation in 300 μL of binding buffer. Binding studies were performed with 100 μL of appropriate concentrations of ^3H-labeled DAMGO (a selective μ-opioid receptor agonist) and 100 μL of competitor or blank in binding buffer at 37° C. for 60 min. Competition binding experiments were performed using […] of ^3H-labelled DAMGO in the absence or presence of increasing concentrations of unlabeled derivatised endomorphins or derivatised endomorphin analogs. A 1 μM excess of unlabelled DAMGO was used to determine non-specific binding. Following incubation, the cells were washed with PBS and recovered from culture plates using 500 μL of […] before transfer to scintillation vials. Liquid scintillation cocktail (Ultima Gold, Packard, Meriden, USA) was added to these vials for counting in a liquid scintillation analyser. Data are expressed as the mean±SEM of % specific binding of triplicate determinations performed on at least three independent plates of cells. Data were plotted using the one-site competition functions of the PRISM program (Graphpad Inc., San Diego, USA) (see FIGS. 1a, 1b and 7).
# [1] = test system: μ- and δ-opioid receptors; assay: Cell based assay of cAMP inhibition in forskolin treated SH-SY5Y cells; conditions: for Inhibit c-AMP (%): SH-SY5Y cell line, normalised to the % of cAMP inhibition seen by native endomorphin-1
# Protocol: SH-SY5Y cells endogenously expressing μ- and δ-opioid receptors were cultured (100 μl) in a 96 well-plate and incubated (usually overnight) until 80% confluent. Once cells were ready for assay, Endo-1, Endo-2 and derivatives/analogs were diluted in DMEM culture medium containing 30 μM forskolin. The diluted derivatised endomorphins or derivatised endomorphin analogs were then applied to separate wells for agonist studies and co-incubated for antagonist studies. Cells were incubated with derivatised endomorphins or derivatised endomorphin analogs at 37° C. for 30 minutes, medium was aspirated and cells were lysed using lysis buffer from a cAMP Biotrak EIA kit (Amersham, Buckinghamshire, UK). An anti-cAMP antibody was added to the lysate, and the mixture incubated at 4° C. for 2 hours followed by the addition of a cAMP peroxidase conjugate, and incubated at 4° C. for a further hour. A 3,3′5,5′-tetramethylbenzidine (TMB) substrate provided by the Biotrak EIA kit was then incubated with cell lysate for 1 hour and finally 1 […] was added to facilitate a colour change, which is proportional to the amount of cAMP captured. A cAMP standard curve from 0 to 3200 fmol was also generated concurrently. Plates were then read by a plate reader at 450 nm and compared back to the cAMP standard curve. All data are compared to the maximum cAMP response to forskolin and are represented as the mean+/−standard error of three experiments performed in triplicate. All data are plotted using PRISM program (GraphPad, San Diego, Calif.) (see FIGS. 2a and 2b).
# [2] = test system: homogenate of Caco-2 cells; assay: Enzymatic stability study in homogenized Caco-2 cells; assay type: in vitro ADME; conditions: Caco-2 cell line; graded by number of ♦ (up to 5), key not given
# Protocol: (§1) Approximately 1×10^5 cells/mL concentration of cells were seeded onto the 96 well plate. […] The media was changed every other day. 21-28 days old cells were used for the experiments. the media was removed from the wells and each well washed with 100 μL 0.2% EDTA solution followed by washing three times with Hanks' balanced salt solution (HBSS) containing 25 mM Hepes (pH 7.4). Finally, 100 μL of this buffer was placed in each well and the plate cooled in ice. The monolayer of cells in each well was then disrupted by 2×1 second pulses with a Sonics Vibracell ultrasonic processor set at an amplitude of 30. The cell debris was then removed by centrifugation of the plate at 2000 rpm for 5 min. 80 μL cell homogenate supernatant of each well was then transferred to a clean 96 well plate, and 20 μL of HBSS-Hepes was added. Three of the wells' contents were set aside and assayed for total protein content using the Lowry assay. The compounds to be tested were dissolved in HBSS-Hepes buffer to a concentration of 200 μM.
# (§2) This assay was performed at 37° C. […] The stability assay on each compound was conducted in triplicate and the concentrations averaged for each time point.
# [3] = as above; assay type: in vitro ADME; conditions: human, pH 7.4; Caco-2 cell homogenate, 37° C., 100 μM
# Protocol: as §1, §2
# Plasma stability assay = assay type: in vitro ADME; conditions: male, human, plasma at 37° C.
# Protocol: To measure the enzymatic stability of endomorphin-1 analogs in plasma, blood was taken from a healthy volunteer and the blood was centrifuged at 1700 rpm for 30 minutes to remove blood cells. The plasma was placed into a water bath heated at 37° C. and Endomorphin-1 and analog was added to give final concentrations of 0.7 mg/mL. Samples were incubated for varying time periods between 0 and 180 minutes. 50 μL of sample was taken at each time-point and 75 μL of acetonitrile was added to quench any enzyme activity. The samples were then placed on ice and upon completion of the assay, all samples were centrifuged at 9000 rpm for 3 minutes to remove all precipitated plasma proteins. The amount of intact peptide remaining in the supernatent of each sample was determined using RP HPLC by measuring the area under the curve of the peak at the appropriate retention time compared to a standard curve of concentration for each peptide (see FIG. 8).
# [4] = In vivo biodistribution of 3H-labelled peptide, oral; parameters: species or system rat; conditions: rats, oral administration
# Protocol: After 15, 30 and 60 minutes, 5 rats were sacrificed and the brain, liver, blood, kidneys, stomach, spleen, small intestine and large intestine were removed following oral administration. The organs were subsequently homogenised in buffer and a sample removed and placed in tissue solubiliser for 3 days. After this time a small sample was removed and treated with bleach over night to remove any colour from the solution and the resulting sample dissolved in scintillation fluid and the radioactivity measured by liquid scintillation.
# Caco-2 cells = assay: Caco-2 permeability study
# Protocol: Approximately 1×10^6 cells/mL concentration of cells were seeded onto polycarbonate cell culture inserts (Transwell®; 0.45 μm×6.5 mm diameter). DMEM cell culture media was supplemented with 10% FBS, 1% L-glutamine, 1% nonessential amino acids and 1% 100 U/mL penicillin/streptomycin. The media was changed every other day (0.6 mL in the basolateral chamber and 0.1 mL to the apical chamber) and the monolayers were used between days 21-28. Transepithelial electrical resistance (TEER) of the monolayer was measured using the Millicell-ERS system (Millipore Corporation, Bedford, Mass.). C^14-mannitol permeability was used to monitor the integrity of the Caco-2 monolayers.
# Prior to beginning the experiments, the monolayers were washed with pre-warmed HBSS-Hepes buffer, incubated for 30 min. At the start of the experiment the apical chamber was emptied and 100 μL of either the derivatised endomorphin or derivatised endomorphin analog solution was added. The permeability study was performed in triplicate at 37° C. shaking in a Heridolf Titramax shaking at 400 rpm. […] Permeability coefficients (Papp) were calculated from data generated by LC/MS quantitative analysis of all samples using a gradient HPLC system (Shimadzu LC-10AT system) coupled to a triple quadrupole mass spectrometer (PE Sciex API 3000) operating in SIM mode with positive ion electrospray. The mobile phase was a mixture of solvent A (0.1% formic acid in water) and solvent B (0.1% formic acid in 90% acetonitrile/water). A C18 column, 5 μM, 50×2.0 mm (Phenomex®) was used at a flow rate 0.3 mL/min with a gradient from 100% A to 90% B in 7 minutes, incorporating a splitter (1:10).
# The permeability of the sugars themselves was also examined.
# [5] = In vivo biodistribution of 3H-labelled peptide, intravenous; parameters: species or system rat; conditions: rats, i.v.
# Protocol: FIG. 5(a)-(c) are graphical representations showing in vivo bio-distribution of 1 in rats. […] After 15, 30 and 60 minutes, 5 rats were sacrificed and the brain FIG. 5(a), liver FIG. 5(b) and blood FIG. 5(c) of each rat were removed following intravenous administration. The organs were subsequently homogenised in buffer and a sample removed and placed in tissue solubiliser for 3 days. After this time a small sample was removed and treated with bleach over night to remove any colour from the solution and the resulting sample dissolved in scintillation fluid and the radioactivity measured by liquid scintillation. […] The apparent increase in blood levels of the parent peptide after 60 minutes is likely due to the breakdown of the compound and release of the radiolabeled acetate into the blood stream.
# [6] = Blood plasma concentration after oral gavage; assay type: in vivo, rat; conditions: male rats
# Protocol: In another experiment, Lac-endo was fed via oral gavage to male rats and the concentration of the compound in blood plasma measured over time. Sprague-dawley rats (average wt 300 g) were gavaged with 500 μL of a 20 mM Lac-endo or Endomorphin solution in water. Blood samples taken from the tail vein after 30, 60 and 90 min. The blood was centrifuged to remove red blood cells, and in a 100 μL sample of plasma was added to 300 μL of acetonitrile to precipitate proteins. The suspension was centrifuged a second time and the supernatant analysed by LC-MS.
compound,measurement,setting,value
"Cc1cc(O)cc(C)c1C[C@H](N)C(=O)N1CCC[C@H]1C(=O)N[C@@H](Cc1c[nH]c2ccccc12)C(=O)N[C@@H](Cc1ccccc1)C(N)=O [(Dmt^1)Endo, reference compound]",pKi,μ-opioid receptor,10.24
same,pIC50,[1]; Efficacy SH-SY5Y cell line,9.81
same,Inhibit c-AMP (%),[1],160%
same,Enzymatic stability 2 h,[2],♦
same,half-life at 100 μM,[3],8.98 min
same,half-life at 0.7 mg/mL,Plasma stability assay,4.18 min
CCCCCCC(N)C(=O)N[C@@H](Cc1ccc(O)cc1)C(=O)N1CCC[C@H]1C(=O)N[C@@H](Cc1c[nH]c2ccccc12)C(=O)N[C@@H](Cc1ccccc1)C(N)=O (stereo partly shown) [Compound 1] (H-[ξAoc(2)]YPWF-NH2),"delivery to the brain, in words",[4],evidence of delivery of the peptide to the brain
same,increase in serum levels compared to the native peptide,[4]; over the time of the experiment,6 fold
same,pKi,μ-opioid receptor,8.61
same,"Ki / binding affinity, in words","μ-opioid receptor; displacement of 3H-DAMGO, FIG. 1",low nanomolar range
same,"apparent permeability (Papp), in words","Caco-2 cells; Caco-2 cell monolayers, compared to parent peptide",significantly improved apparent permeability compared to the parent peptide
same,Inhibit c-AMP (%),[1],97%
same,half-life,[3],25.5 min
same,"accumulation in the liver, in words",[5],accumulate less in the liver than the parent peptide
same,label appearing in the brain,[5]; after 15 minutes,> 10%
NC(=O)[C@H](Cc1ccccc1)NC(=O)[C@H](Cc1c[nH]c2ccccc12)NC(=O)[C@@H]1CCCN1C(=O)[C@H](Cc1ccc(O)cc1)NC(=O)CCC(=O)N[C@@H]1O[C@H](CO)[C@@H](O[C@@H]2O[C@H](CO)[C@H](O)[C@H](O)[C@H]2O)[C@H](O)[C@H]1O [Compound 12],Tmax,"[6]; Sprague-Dawley, rat, plasma, 10 µmol/rat, read-out: time of highest recorded concentration in blood (converted)",60 min
same,"absorption across the GI tract, in words",[6]; 500 μL of 20 mM solution,significant absorption of the compound across the GI tract
same,absorption of Lac-endo in presence of galactose,"Caco-2 cells; Caco-2 monolayers, 20 mM galactose",some inhibition of absorption but less than lactose
same,absorption of Lac-endo in presence of glucose,"Caco-2 cells; Caco-2 monolayers, 20 mM glucose",doesn't inhibit the absorption
same,absorption of Lac-endo in presence of lactose,"Caco-2 cells; Caco-2 monolayers, 20 mM lactose",severely inhibits the absorption
NC(=O)[C@H]1O[C@@H](NC(=O)[C@H](Cc2ccccc2)NC(=O)[C@H](Cc2c[nH]c3ccccc23)NC(=O)[C@@H]2CCCN2C(=O)[C@@H](N)Cc2ccc(O)cc2)[C@H](O)[C@@H](O)[C@@H]1O [Compound 18],Permeability,"Caco-2 cells; Caco-2 cell line, graded by number of ♦ (up to 5), key not given",♦
same,Enzymatic stability 2 h,[2],♦
